Test results from ChEMBL document CHEMBL3988442, “University of Dundee, Small-Polar-MMV Screening Library” (2021).

Columns and labels:
[1] = microbe, parasite or virus in culture; conditions: Mycobacterium tuberculosis, 96 h, read-out: pIC50 (converted)
[2] = microbe, parasite or virus in culture; conditions: Mycobacterium tuberculosis, 72 h, read-out: pIC50 (converted)

Molecule `CS(=O)(=O)Nc1cccc(C(=O)Nc2ccccc2)c1` has an IC50 [1] of 267 µM and an IC50 [2] of 130 µM.

In the case of `COc1ccc(OCCSc2n[nH]c(N)n2)cc1`, the IC50 [1] is reported as 220 µM and the IC50 [2] is reported as 199 µM.

In the case of `NC(=O)c1cc(S(=O)(=O)NCCc2ccccc2)cs1`, the IC50 [1] is reported as > 501 µM and the IC50 [2] is reported as 247 µM.

With `NC(=O)C1CCCN(CCc2ccccc2)C1` (centres undefined) the IC50 [1] was > 501 µM and the IC50 [2] was > 501 µM.

With `O=C(NCc1cccnc1)C1COc2ccccc2O1` (centres undefined) the IC50 [1] was > 501 µM and the IC50 [2] was > 501 µM.

For `CN1CCCN(C(=O)c2cc3c(s2)CCCC3)CC1`, the IC50 [1] was > 501 µM and the IC50 [2] was 211 µM.

`CCc1n[nH]c(SCC(=O)Nc2ccc(Br)cn2)n1` showed an IC50 [1] of 186 µM and an IC50 [2] of 144 µM.

In the case of `CCCc1cc(C(=O)N2CCCN(C)CC2)cs1`, the IC50 [1] is reported as > 501 µM and the IC50 [2] is reported as > 501 µM.

For `CN(C)CCNC(=O)c1ccc(Cl)cc1`, the IC50 [1] was > 501 µM and the IC50 [2] was > 501 µM.

For `Cc1occc1C(=O)NCC(CO)Cc1cccs1` (centres undefined), the IC50 [1] was > 501 µM and the IC50 [2] was > 501 µM.

For `COCCC1CN(C(=O)c2ccc(C)c(F)c2)CCO1` (centres undefined), the IC50 [1] was 234 µM and the IC50 [2] was 257 µM.

With `COc1c(F)cc(CN2CC[C@@H](N)[C@H](O)C2)cc1Cl` the IC50 [1] was > 501 µM and the IC50 [2] was 279 µM.

With `Cc1ccc(F)c(S(=O)(=O)N2C[C@H](C3CC3)[C@@H](N)C2)c1` the IC50 [1] was > 501 µM and the IC50 [2] was > 501 µM.

Work on `Cn1nnnc1SCCNCc1ccc(Br)cc1` yielded an IC50 [1] of 289 µM and an IC50 [2] of 280 µM.

With `CCN1CCN(Cc2nc(-c3ccccc3)no2)CC1` the IC50 [1] was > 501 µM and the IC50 [2] was > 501 µM.

Molecule `CC(C)Oc1cccc(-c2cnn(CCC(N)=O)c2)c1` has an IC50 [1] of 382 µM and an IC50 [2] of 264 µM.

Work on `Cc1nc(CN(C)C(=O)c2nc(C(C)C)cs2)no1` yielded an IC50 [1] of 5.83 µM and an IC50 [2] of 71.2 µM.

`CCCN1CCN(C(=O)COc2ccccc2)CC1` gave an IC50 [1] of 57.3 µM and an IC50 [2] of 33.3 µM.

For `CC(C)c1cc(C(=O)N(C)C(C)c2ccon2)on1` (centres undefined), the IC50 [1] was 437 µM and the IC50 [2] was > 501 µM.

`CCC1(CO)CCCN(C(=O)c2ccc(COC)s2)C1` (centres undefined) showed an IC50 [1] of 246 µM and an IC50 [2] of 148 µM.

In the case of `Cc1ccc(-c2noc(CNS(C)(=O)=O)n2)cc1`, the IC50 [1] is reported as > 501 µM and the IC50 [2] is reported as 248 µM.

For `Cc1ccoc1C(=O)N(C)Cc1nc(C(C)C)no1`, the IC50 [1] was 179 µM and the IC50 [2] was > 501 µM.

With `CCOC(=O)Cn1nnc2ccccc2c1=O` the IC50 [1] was > 501 µM and the IC50 [2] was > 501 µM.

With `CCCc1cc(C(=O)NCC2COCCO2)cs1` (centres undefined) the IC50 [1] was 124 µM and the IC50 [2] was > 501 µM.

Molecule `CCCOCCNC(=O)c1cc(C(F)(F)F)n[nH]1` has an IC50 [1] of 43.8 µM and an IC50 [2] of 54.8 µM.

In the case of `Clc1ccc(N2CCN(Cc3ncc[nH]3)CC2)nc1`, the IC50 [1] is reported as > 501 µM and the IC50 [2] is reported as 311 µM.

`COCCOc1ccc(C(=O)NCc2ccco2)cc1` showed an IC50 [1] of 61.7 µM and an IC50 [2] of 109 µM.

Work on `CCOc1ccc(C(=O)CCN(C)C)cc1` yielded an IC50 [1] of 191 µM and an IC50 [2] of 160 µM.

In the case of `O=C(Nc1nnc(-c2cccs2)s1)NC1CCCNC1` (centres undefined), the IC50 [1] is reported as > 501 µM and the IC50 [2] is reported as 127 µM.

With `CC1CN(CCCOc2ccc(C#N)cc2)CCN1` (centres undefined) the IC50 [1] was 390 µM and the IC50 [2] was > 501 µM.

`CN(Cc1nccs1)C(=O)C1COc2ccccc2C1` (centres undefined) showed an IC50 [1] of 195 µM and an IC50 [2] of 242 µM.

`NS(=O)(=O)c1cccc(S(=O)(=O)c2ccc(Cl)cc2)c1` gave an IC50 [1] of 283 µM and an IC50 [2] of 71.4 µM.

`CC(C)CC1CCN(C(=O)CCn2cnnn2)C1` (centres undefined) showed an IC50 [1] of 77.2 µM and an IC50 [2] of 28.3 µM.

Molecule `CCCc1nc(C(=O)NCCc2cccnc2)cs1` has an IC50 [1] of 281 µM and an IC50 [2] of 277 µM.

For `CNC(=O)c1ccc(Cl)c(S(=O)(=O)N2CCCCC2)c1`, the IC50 [1] was > 501 µM and the IC50 [2] was > 501 µM.

In the case of `Nc1nc(CCCNC(=O)Cc2ccsc2)cs1`, the IC50 [1] is reported as > 501 µM and the IC50 [2] is reported as > 501 µM.

For `Cc1cccc(Cl)c1OCCN`, the IC50 [1] was > 501 µM and the IC50 [2] was 319 µM.

For `NCC(=O)N1CCCC(COc2ccc(F)cc2)C1` (centres undefined), the IC50 [1] was > 501 µM and the IC50 [2] was 220 µM.

In the case of `N[C@@H]1CC[C@@H](NC(=O)c2cc3sccc3[nH]2)C1`, the IC50 [1] is reported as > 501 µM and the IC50 [2] is reported as 167 µM.

In the case of `COc1cccc(-c2cnn(CCC(N)=O)c2)c1F`, the IC50 [1] is reported as > 501 µM and the IC50 [2] is reported as 355 µM.

In the case of `CCC[C@H]1CN(S(=O)(=O)Cc2ccc(F)cc2)C[C@@H]1N`, the IC50 [1] is reported as > 501 µM and the IC50 [2] is reported as > 501 µM.

Work on `CCCc1nnc(NC2CCN(C(=O)OCC)CC2)o1` yielded an IC50 [1] of 72 µM and an IC50 [2] of 180 µM.

`C=C(C)c1nc(C#N)c(NCc2ccco2)o1` showed an IC50 [1] of 170 µM and an IC50 [2] of 142 µM.

Molecule `CC(C)c1cc(C(=O)N2CC(c3ccccn3)C2)no1` has an IC50 [1] of 60.5 µM and an IC50 [2] of 70.5 µM.

In the case of `NCC1CN(Cc2c(Cl)cncc2Cl)CCO1` (centres undefined), the IC50 [1] is reported as > 501 µM and the IC50 [2] is reported as 70.8 µM.

With `NC(=O)COc1cccc(CN2CCC(F)CC2)c1` the IC50 [1] was > 501 µM and the IC50 [2] was > 501 µM.

In the case of `O=C(CCc1cc(Cl)no1)N1CCOC(C(F)(F)F)C1` (centres undefined), the IC50 [1] is reported as 134 µM and the IC50 [2] is reported as > 501 µM.

With `COC1CCN(C(=O)CCc2ccc(F)cc2F)C1` (centres undefined) the IC50 [1] was 21.4 µM and the IC50 [2] was 206 µM.

For `CCc1ccc(CN2CC(N3CCOCC3)C2)o1`, the IC50 [1] was 188 µM and the IC50 [2] was 129 µM.

In the case of `N[C@H]1CN(S(=O)(=O)c2cccc(Cl)c2)C[C@@H]1C1CC1`, the IC50 [1] is reported as > 501 µM and the IC50 [2] is reported as 363 µM.

In the case of `CNc1cc(C(=O)NCC(OC)c2cccs2)ccn1` (centres undefined), the IC50 [1] is reported as > 501 µM and the IC50 [2] is reported as 22.9 µM.

With `O=C(C1CC1)N1CCN(Cc2cccc(F)c2)CC1` the IC50 [1] was 210 µM and the IC50 [2] was > 501 µM.
